No end group written: not given here.
What was measured:
[1] = Birk and Li, Proc. Natl. Acad. Sci. U.S.A. 75(5), 2155 (1978); cited from earlier work
pigeon crop-sac = assay: local crop-sac assay in the pigeon (prolactin / lactogenic activity); assay type: in vivo; conditions: Table 10; total dose 120 μg; mean ± SEM, number of birds in parentheses
Description: The growth-promoting activity of PL-HGH, the unpurified recombinant of Example 1 (fraction IV), [Cys(Cam)^53 -HGH-(1-134)], [Cys(Cam)^165, 182, 189 -HGH-(141-191)] and saline control were determined by the rat tibia test of Greenspan et al, Endocrinology 45, 455 (1949) and by the local crop-sac assay in the pigeon according to Lyons, Proc. Soc. Exp. Biol. 35, 645 (1937) and Nicoll, Endocrinology 80, 641 (1967). Amino acid compositions of acid and carboxypeptidase hydrolysates were determined in an automatic amino acid analyzer (model 120B, Beckman Instruments). For the analysis of tryptophan, the methanesulfonic acid hydrolysates were used. Amino-terminal residue and sequence analyses were preformed by the dansyl-Edman procedure. Isoelectric focusing was carried out in 8 M urea. Prolactin activity was estimated by the pigeon crop-sac assay. Microcomplement fixation experiments were performed with rabbit antisera to HCS. The gel-double-diffusion technique of Ouchterlony was done using 1% agar in 0.01 M phosphate buffer of pH 7.5. Exclusion chromatography of the purified fragments or the recombinant was performed on a Sephadex G-100 column (1.5×60 cm; V0 =35 ml) in 10 mM NH4 HCO3 (pH 8.4) at 21°. Circular dichroism (CD) spectra were obtained by a spectropolarimeter (Cary model 60) equipped with a circular dichroism attachment (model 6002). Microcomplement fixation was performed with the guinea pig antiserum to ovine prolactin. The gel double-diffusion technique of Ouchterlony was carried out with 1% agar in 10 mM phosphate buffer (pH 7.5). The prolactin activity was estimated by the local crop-sac assay in the pigeon.

antiserum to prolactin = assay: gel double-diffusion technique of Ouchterlony; assay type: binding
Description: Exclusion chromatography of the purified fragments or the recombinant was performed on a Sephadex G-100 column (1.5×60 cm; V0 =35 ml) in 10 mM NH4 HCO3 (pH 8.4) at 21°. Circular dichroism (CD) spectra were obtained by a spectropolarimeter (Cary model 60) equipped with a circular dichroism attachment (model 6002). Microcomplement fixation was performed with the guinea pig antiserum to ovine prolactin. The gel double-diffusion technique of Ouchterlony was carried out with 1% agar in 10 mM phosphate buffer (pH 7.5). The prolactin activity was estimated by the local crop-sac assay in the pigeon.

[2] = conformational, immunological and biological activity of Example 8 and 9 recombinants compared with native hormone; conditions: Examples 8 and 9, present tense, no data

Substance | biological activity, in words [1] | Response (dry mucosal weight) (pigeon crop-sac) [mg] | precipitin line (antiserum to prolactin) | conformational, immunological and biological activity, in words [2]
PRL-(1-53): NH2-terminal portion, residues 1-53, of ovine prolactin from fibrinolysin digestion (TPVCPNGPGNCQVSLRDLFDRAVMVSHYIHNLSSEMFNEFDKRYAQGKGFITM; ends and bridges not checked; cysteine pairing not given here; UniProt P01240 31-83, looked up, fragment) | inactive | 10.1 ± 2.6 | neither fragment gave a precipitin line | –
[Cys(Cam)^53 ]-HGH-(1-134)+(Lys^135,136,138, Glu^137,139, Nle^170, Ala^165,182,189)-HGH-(135-191) | – | – | – | analogous conformational, immunological and biological activity as native HGH
